According to patent US20110105408A1, “THERAPEUTIC PEPTIDES” (INTER-K PTY LIMITED, priority 2008, published 2011):

Test system: HT29 human colorectal adenocarcinoma tumour
Assay: Inhibition of HT29 tumour growth in a mouse model, intra-tumoural injection
Format: in vivo, Mouse (Mus musculus) BALB/c nu/nu
Conditions: for Tumour volume, Delta avg: change in volume from day 0
Description: HT29 human colorectal adenocarcinoma cells were cultured in RPMI 1640 cell culture medium supplemented with 10% v/v FCS and 50 IU/mL penicillin-streptomycin. The cells were harvested by trypsinisation, washed twice in HBSS and counted. The cells were then resuspended in HBSS to a final concentration of 2×10^7 cells/mL.
• Species: Mouse (Mus musculus) • Strain: BALB/c nu/nu • Source: University of Adelaide (Waite Campus, Urrbrae, SA, Australia) • Total number of animals in study: 20 females • Number of study groups: 2 (1 test, 1 control) • Number of mice per group: 10 • Body weight range: 20.61-25.27 g at onset of treatment (mean 22.27 g) • Age range: 10-12 weeks at onset of treatment.
Prior to inoculation the skin on the injection site (dorsal right flank) was swabbed with alcohol. The needle was introduced through the skin into the subcutaneous space just below the animal's right shoulder, and 100 μL of cells (2×10^6 cells) were discharged. The treatment of mice began nine days after HT29 cell inoculation, the average tumour volume was 68 mm^3 (average variability of 6.1%).
Body weight and tumour dimensions (length and diameter) were measured for all animals on the first day of treatment (day 0) and then three times per week, including the termination day of the study (Day 24).
Mice were randomized, based on body weight, into two groups of ten mice on Day 0 of the study. The peptide dendrimer IK248B presenting 10 monomer units of the peptide RSKAKNPLYR (SEQ ID No. 6) (see Example 8) was used in this study. The vehicle control (phosphate buffered saline (PBS)) and IK248B dendrimer (20 mg/kg) were each administered by intra-tumoural injection once daily for five consecutive days, beginning on Day 0.
The vehicle control and IK248B dendrimer were administered at a dosing volume of 4.762 mL/kg (100 μL) based on a 21 g mouse. Each animal's body weight was measured immediately prior to dosing. The volume of dosing solution administered to each mouse was calculated and adjusted based on individual body weight.
Tumours were excised from all mice post mortem and weighed. Tumour volume was calculated using the equation:
V(mm^3)=length×diameter^2×p/6
ΔT/ΔC(%) was calculated using the following equation:
ΔT/ΔC(%)=(ΔvolumeTreatment/ΔVolumeControl)×100
where Δ=change in volume from day 0 to the final measurement day or nominated day of interest.
All statistical calculations were performed using SigmaStat 3.0 (SPSS Australasia, North Sydney, NSW, Australia). A two-sample t-test was used to determine the significance in body weight change within a treatment group between day 0 and day 4, and between day 0 and the termination day of the study. A One-Way Analysis of Variance (ANOVA) was performed on tumour volumes measured in all mice at the end of the study. Where significant differences were found in the data, the All Pairwise Multiple Comparison Procedures (Holm-Sidak Method) were performed. A two-sample t-test was used to show a significant difference between the tumour weight data for the vehicle control and Dend 10 10(4) treatment groups. A p value of less than 0.05 was considered significant.

CC(C)C[C@H](NC(=O)[C@@H]1CCCN1C(=O)[C@H](CC(N)=O)NC(=O)[C@H](CCCCN)NC(=O)[C@H](C)NC(=O)[C@H](CCCCN)NC(=O)[C@H](CO)NC(=O)[C@@H](N)CCCNC(=N)N)C(=O)N[C@@H](Cc1ccc(O)cc1)C(=O)N[C@@H](CCCNC(=N)N)C(=O)NCCCC[C@H](NC(=O)[C@H](CCCCNC(=O)[C@H](CCCCNC(=O)[C@H](CCCNC(=N)N)NC(=O)[C@H](Cc1ccc(O)cc1)NC(=O)[C@H](CC(C)C)NC(=O)[C@@H]1CCCN1C(=O)[C@H](CC(N)=O)NC(=O)[C@H](CCCCN)NC(=O)[C@H](C)NC(=O)[C@H](CCCCN)NC(=O)[C@H](CO)NC(=O)[C@@H](N)CCCNC(=N)N)NC(=O)[C@H](CCCNC(=N)N)NC(=O)[C@H](Cc1ccc(O)cc1)NC(=O)[C@H](CC(C)C)NC(=O)[C@@H]1CCCN1C(=O)[C@H](CC(N)=O)NC(=O)[C@H](CCCCN)NC(=O)[C@H](C)NC(=O)[C@H](CCCCN)NC(=O)[C@H](CO)NC(=O)[C@@H](N)CCCNC(=N)N)NC(=O)[C@H](CCCCNC(=O)[C@H](CCCNC(=N)N)NC(=O)[C@H](Cc1ccc(O)cc1)NC(=O)[C@H](CC(C)C)NC(=O)[C@@H]1CCCN1C(=O)[C@H](CC(N)=O)NC(=O)[C@H](CCCCN)NC(=O)[C@H](C)NC(=O)[C@H](CCCCN)NC(=O)[C@H](CO)NC(=O)[C@@H](N)CCCNC(=N)N)NC(=O)[C@H](CCCNC(=N)N)NC(=O)[C@H](Cc1ccc(O)cc1)NC(=O)[C@H](CC(C)C)NC(=O)[C@@H]1CCCN1C(=O)[C@H](CC(N)=O)NC(=O)[C@H](CCCCN)NC(=O)[C@H](C)NC(=O)[C@H](CCCCN)NC(=O)[C@H](CO)NC(=O)[C@@H](N)CCCNC(=N)N)C(=O)NCCCC[C@H](NC(=O)[C@H](CCCCNC(=O)[C@H](CCCNC(=N)N)NC(=O)[C@H](Cc1ccc(O)cc1)NC(=O)[C@H](CC(C)C)NC(=O)[C@@H]1CCCN1C(=O)[C@H](CC(N)=O)NC(=O)[C@H](CCCCN)NC(=O)[C@H](C)NC(=O)[C@H](CCCCN)NC(=O)[C@H](CO)NC(=O)[C@@H](N)CCCNC(=N)N)NC(=O)[C@H](CCCCNC(=O)[C@H](CCCCNC(=O)[C@H](CCCNC(=N)N)NC(=O)[C@H](Cc1ccc(O)cc1)NC(=O)[C@H](CC(C)C)NC(=O)[C@@H]1CCCN1C(=O)[C@H](CC(N)=O)NC(=O)[C@H](CCCCN)NC(=O)[C@H](C)NC(=O)[C@H](CCCCN)NC(=O)[C@H](CO)NC(=O)[C@@H](N)CCCNC(=N)N)NC(=O)[C@H](CCCNC(=N)N)NC(=O)[C@H](Cc1ccc(O)cc1)NC(=O)[C@H](CC(C)C)NC(=O)[C@@H]1CCCN1C(=O)[C@H](CC(N)=O)NC(=O)[C@H](CCCCN)NC(=O)[C@H](C)NC(=O)[C@H](CCCCN)NC(=O)[C@H](CO)NC(=O)[C@@H](N)CCCNC(=N)N)NC(=O)[C@H](CCCCNC(=O)[C@H](CCCNC(=N)N)NC(=O)[C@H](Cc1ccc(O)cc1)NC(=O)[C@H](CC(C)C)NC(=O)[C@@H]1CCCN1C(=O)[C@H](CC(N)=O)NC(=O)[C@H](CCCCN)NC(=O)[C@H](C)NC(=O)[C@H](CCCCN)NC(=O)[C@H](CO)NC(=O)[C@@H](N)CCCNC(=N)N)NC(=O)[C@H](CCCNC(=N)N)NC(=O)[C@H](Cc1ccc(O)cc1)NC(=O)[C@H](CC(C)C)NC(=O)[C@@H]1CCCN1C(=O)[C@H](CC(N)=O)NC(=O)[C@H](CCCCN)NC(=O)[C@H](C)NC(=O)[C@H](CCCCN)NC(=O)[C@H](CO)NC(=O)[C@@H](N)CCCNC(=N)N)C(=O)NCCC(N)=O [IK248B]
tumour growth compared to vehicle only control (20 mg/kg intra-tumoural once daily for five days): markedly inhibited
average tumour weight at the end of the study (20 mg/kg intra-tumoural once daily for five days, Day 24, control 0.962 g): 0.437 g
dT/dC [%] (Day 0): 100.0%
Tumour volume, Delta avg (Day 0): 0.0 mm^3
Tumour volume, Average (Day 0 post-initial treatment): 68.0 mm^3
dT/dC [%] (Day 2): 134.3%
Tumour volume, Delta avg (Day 2): 68.6 mm^3
Tumour volume, Average (Day 2 post-initial treatment): 136.6 mm^3
dT/dC [%] (Day 4): 102.0%
Tumour volume, Delta avg (Day 4): 144.0 mm^3
Tumour volume, Average (Day 4 post-initial treatment): 211.9 mm^3
dT/dC [%] (Day 7): 68.1%
Tumour volume, Delta avg (Day 7): 180.6 mm^3
Tumour volume, Average (Day 7 post-initial treatment): 248.6 mm^3
dT/dC [%] (Day 11): 58.0%
Tumour volume, Delta avg (Day 11): 232.9 mm^3
Tumour volume, Average (Day 11 post-initial treatment): 300.9 mm^3
dT/dC [%] (Day 14): 44.6%
Tumour volume, Delta avg (Day 14): 255.9 mm^3
Tumour volume, Average (Day 14 post-initial treatment): 323.9 mm^3
dT/dC [%] (Day 16): 45.2%
Tumour volume, Delta avg (Day 16): 323.1 mm^3
Tumour volume, Average (Day 16 post-initial treatment): 391.0 mm^3
dT/dC [%] (Day 18): 47.1%
Tumour volume, Delta avg (Day 18): 408.9 mm^3
Tumour volume, Average (Day 18 post-initial treatment): 476.9 mm^3
dT/dC [%] (Day 21): 55.7%
Tumour volume, Delta avg (Day 21): 598.7 mm^3
Tumour volume, Average (Day 21 post-initial treatment): 601.5 mm^3
dT/dC [%] (Day 24): 54.5%
Tumour volume, Delta avg (Day 24): 710.4 mm^3
Tumour volume, Average (Day 24 post-initial treatment): 702.1 mm^3
